The text below walks through data of US11618747B2, “LXR modulators with bicyclic core moiety” (OrsoBio, Inc., priority 2018, dated 2023).

Read-outs that look alike come from different tables or passages of the source. A value given as a limit tells only on which side of the number the result lay.

The target in one test is T1, full length (FL) LXRα (Homo sapiens, UniProt Q13133).
T1 construct: the full length (FL) proteins of LXRα (amino acids 1-447); NP005684; expressed in transfected cells; host or cells: HEK293
T1 sequence (Q13133 1-447): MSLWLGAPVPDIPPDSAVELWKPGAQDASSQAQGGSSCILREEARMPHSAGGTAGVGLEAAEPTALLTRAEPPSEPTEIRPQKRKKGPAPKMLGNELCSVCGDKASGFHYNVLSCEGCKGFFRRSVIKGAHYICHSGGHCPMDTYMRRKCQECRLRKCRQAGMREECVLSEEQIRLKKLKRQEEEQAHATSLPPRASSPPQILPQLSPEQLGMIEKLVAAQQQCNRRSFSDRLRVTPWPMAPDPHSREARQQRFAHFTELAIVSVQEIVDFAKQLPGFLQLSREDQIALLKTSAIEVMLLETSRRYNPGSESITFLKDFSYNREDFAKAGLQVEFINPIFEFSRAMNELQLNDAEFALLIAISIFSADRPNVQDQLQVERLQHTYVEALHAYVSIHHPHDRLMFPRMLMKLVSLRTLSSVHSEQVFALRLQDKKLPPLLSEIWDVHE
As to the kind of experiment: LXR Gal4 reporter transient transfection assay (FL-M2H Gal4α). The test is classed as cell-based. The settings on record: HEK293 cells. The method, boiled down:
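Test compounds act for 16 h on transiently transfected HEK293 cells carrying AD-LXR and GAL4 BD-cofactor (SRC1 or NCoR) fusions. Firefly luciferase under GAL4 elements is quantified and corrected with Renilla luciferase for transfection efficiency.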

Test [1] addresses T2, LXRβ ligand-binding domain (Homo sapiens, UniProt P55055, DUP175-175).
T2 construct: amino acids 156-461; NP009052; made in house; host or cells: E. coli
T2 sequence (P55055 with tags, fused parts or gaps DUP175-175 limits assumed): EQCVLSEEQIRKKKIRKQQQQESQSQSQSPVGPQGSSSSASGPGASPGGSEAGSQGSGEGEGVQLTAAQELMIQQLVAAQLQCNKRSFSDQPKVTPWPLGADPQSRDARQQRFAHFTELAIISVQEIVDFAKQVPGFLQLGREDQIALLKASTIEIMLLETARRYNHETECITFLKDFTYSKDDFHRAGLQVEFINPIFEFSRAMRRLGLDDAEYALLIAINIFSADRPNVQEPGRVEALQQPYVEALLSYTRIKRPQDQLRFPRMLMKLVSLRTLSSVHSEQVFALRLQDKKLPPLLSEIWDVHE
Nature of the test: TR-FRETβ activity assay (NCoA3 coactivator peptide recruitment). Type of test: biochemical. An outline of the steps:
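Inverse agonism assessed by loss of coactivator recruitment, read as TR-FRET 665/615 nm after 1 h equilibration at 4 °C, in triplicate. Ten-point titration from 50 μM to 0.002 μM against LXRβ LBD (76 nM, GST fusion) prestimulated with 1 μM 24(S)-25-epoxycholesterol, with 400 nM NCoA3 peptide, pH 6.8. Sulfonyl acetic acids kept as 20 mM DMSO stocks with 100 mM TFA.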

[2] abbreviates: full length LXRα, read-out: FL-M2H Gal4α (EC50 range).
Where [3] appears, read: 1 μM 24(S)-25-epoxycholesterol as prestimulating agonist.
[4] abbreviates: 1 μM 24(S)-25-epoxycholesterol as prestimulating agonist, read-out: FRETβ potency.
[5] abbreviates: TR-FRET, 1 μM 24(S)-25-epoxycholesterol prestimulation, read-out: FRETβ (EC50 range).

In the case of `Cc1ccc(S(=O)(=O)n2c(-c3cccc(N4CC(C(=O)O)C4)c3)c(-c3ccsc3C#N)c3cc(F)ccc32)cc1` [3/32], the EC50 on full length (FL) LXRα (setting [2]) was 100 to 1000 nM; in test [1] (setting [4]), 551 nM; in test [1] (setting [5]), 100 to 1000 nM. Besides, the “FRETβ efficacy (value in brackets)” value in test [1] (setting [3]) is recorded as −98%.

Take `Cc1ccc(S(=O)(=O)n2c(-c3cccc(N4CC(C(=O)O)C4)c3)c(-c3ccsc3C#N)c3cc(F)c(F)cc32)cc1` [3/42]: the EC50 was in the range of 100 to 1000 nM on full length (FL) LXRα (setting [2]) and 1000 to 10000 nM in test [1] (setting [5]).

On to `Cc1ccc(S(=O)(=O)n2c(-c3cccc(N4CC(C(=O)O)C4)c3)c(-c3ccsc3C#N)c3cc(F)c(Cl)cc32)cc1` [3/43], for which the EC50 is 100 to 1000 nM at full length (FL) LXRα (setting [2]) and 1000 to 10000 nM in test [1] (setting [5]).

For `Cc1ccc(S(=O)(=O)n2c(-c3cccc(N4CC(C(=O)O)C4)c3)c(-c3ccsc3C#N)c3cc(Cl)ccc32)cc1` [3/44], the EC50 at full length (FL) LXRα (setting [2]) was < 100 nM; in test [1] (setting [5]), 1000 to 10000 nM.

On to `Cc1ccc(S(=O)(=O)n2c(-c3cccc(N4CC(C(=O)O)C4)c3)c(-c3ccsc3C#N)c3cc(C)ccc32)cc1` [3/46], for which the results for the EC50 (at full length (FL) LXRα (setting [2]); in test [1] (setting [5])) were < 100 nM and 100 to 1000 nM, respectively.

`Cc1ccc(S(=O)(=O)n2c(-c3cccc(-c4ccc(C(=O)O)cc4Cl)c3)c(-c3ccsc3C#N)c3cc(F)ccc32)cc1` [3/48]: the EC50 on full length (FL) LXRα (setting [2]) was < 100 nM; in test [1] (setting [5]), 100 to 1000 nM.

Regarding `O=C(O)c1ccc(-c2cccc(-c3c(-c4ccccc4C4COC4)c4cc(F)ccc4n3S(=O)(=O)c3ccc(C(F)F)cc3)c2)c(Cl)c1` [3/59], the EC50 (at full length (FL) LXRα (setting [2]); in test [1] (setting [5])) was < 100 nM in each case.

Regarding `Cc1ccc(S(=O)(=O)n2c(-c3cccc(C45CCC(C(=O)O)(CC4)CC5)c3)c(-c3ccsc3C#N)c3cc(F)ccc32)cc1` [3/64], the EC50 on full length (FL) LXRα (setting [2]) is < 100 nM; in test [1] (setting [5]) it was 100 to 1000 nM.

Turning to `N#Cc1cccc(C#N)c1-c1c(-c2cccc(-c3c(F)cc(CC(=O)O)cc3F)c2)n(S(=O)(=O)c2ccc(C(F)F)cc2)c2ccc(F)cc12` [3/73], the EC50 (on full length (FL) LXRα (setting [2]); in test [1] (setting [5])) was < 100 nM each time.

On to `Cc1ccc(S(=O)(=O)n2c(-c3cccc(-c4ccc(C(=O)O)cc4)c3)c(-c3ccsc3C#N)c3cc(F)ccc32)cc1` [5/3], for which the EC50 in test [1] (setting [5]) lay in the range of 100 to 1000 nM.

As to `CC(=O)NS(=O)(=O)c1ccc(-c2cccc(-c3c(-c4c(C#N)cccc4C#N)c4cc(F)ccc4n3S(=O)(=O)c3ccc(C(F)F)cc3)c2)c(Cl)c1` [8/8], the EC50 (on full length (FL) LXRα (setting [2]); in test [1] (setting [5])) was < 100 nM in each case.

For the compound `N#Cc1cccc(C#N)c1-c1c(-c2cccc(-c3ccc(C(=O)NCCS(=O)(=O)O)cc3Cl)c2)n(S(=O)(=O)c2ccc(C(F)F)cc2)c2ccc(F)cc12` [10/1], the EC50 (on full length (FL) LXRα (setting [2]); in test [1] (setting [5])) was < 100 nM each time.

For `CN(CCS(=O)(=O)O)C(=O)c1ccc(-c2cccc(-c3c(-c4c(C#N)cccc4C#N)c4cc(F)ccc4n3S(=O)(=O)c3ccc(C(F)F)cc3)c2)c(Cl)c1` [10/2], the EC50 (on full length (FL) LXRα (setting [2]); in test [1] (setting [5])) was < 100 nM throughout.

As for `N#Cc1nccnc1-c1c(-c2cccc(-c3cc(F)c(C(=O)O)cc3Cl)c2)n(S(=O)(=O)c2ccc(C(F)F)cc2)c2ccc(F)cc12` [11/11], the EC50 (on full length (FL) LXRα (setting [2]); in test [1] (setting [5])) was < 100 nM throughout.

Regarding `N#Cc1cccc(C#N)c1-c1c(-c2cccc(-c3ccc(C(=O)O)cc3Cl)c2)n(S(=O)(=O)c2ccc(C(F)F)cc2)c2ccc(F)cc12` [11/12], the EC50 (on full length (FL) LXRα (setting [2]); in test [1] (setting [5])) was < 100 nM in each case.

As to `O=C(O)c1ccc(-c2cccc(-c3c(-c4c(Cl)cccc4Cl)c4cc(F)ccc4n3S(=O)(=O)c3ccc(C(F)F)cc3)c2)c(Cl)c1` [11/13], the EC50 (on full length (FL) LXRα (setting [2]); in test [1] (setting [5])) was < 100 nM each time.

Consider `N#Cc1sccc1-c1c(-c2cccc(-c3ccc(C(=O)O)cc3Cl)c2)n(S(=O)(=O)c2ccc(C(F)(F)F)nc2)c2ccc(F)cc12` [11/16], for which the EC50 on full length (FL) LXRα (setting [2]) was < 100 nM; in test [1] (setting [5]), 100 to 1000 nM.

In the case of `O=C(O)c1ccc(-c2cccc(-c3c(-c4ncccc4C(F)(F)F)c4cc(F)ccc4n3S(=O)(=O)c3ccc(C(F)F)cc3)c2)c(Cl)c1` [11/23], the EC50 (on full length (FL) LXRα (setting [2]); in test [1] (setting [5])) was < 100 nM each time.

In the case of `N#Cc1cccnc1-c1c(-c2cccc(-c3ccc(C(=O)O)cc3Cl)c2)n(S(=O)(=O)c2ccc(C(F)F)cc2)c2ccc(F)cc12` [11/26], the EC50 (on full length (FL) LXRα (setting [2]); in test [1] (setting [5])) was < 100 nM each time.

`COc1c(C(=O)O)ccc(-c2cccc(-c3c(-c4ccccc4C#N)c4cc(F)ccc4n3S(=O)(=O)c3ccc(C(F)F)cc3)c2)c1Cl` [11/27]: the EC50 (at full length (FL) LXRα (setting [2]); in test [1] (setting [5])) was < 100 nM throughout.

Take `N#Cc1ccccc1-c1c(-c2cccc(-c3ccc(C(=O)O)cc3Cl)c2)n(S(=O)(=O)c2ccc(C(F)F)cc2)c2ccc(F)cc12` [11/33]: the “FL-M2H Gal4α efficacy (value in brackets)” value at full length (FL) LXRα is reported as 164%. Further, the EC50 on full length (FL) LXRα (setting [2]) is < 100 nM; at full length (FL) LXRα (read-out: FL-M2H Gal4α potency), 1.3 nM; in test [1] (setting [4]), 19 nM; in test [1] (setting [5]), < 100 nM. Besides, the “FRETβ efficacy (value in brackets)” value in test [1] (setting [3]) was −99%.

Take `N#Cc1cccc(C#N)c1-c1c(-c2cccc(-c3ccc(C(=O)O)cc3Cl)c2)n(S(=O)(=O)c2ccc(C(F)(F)F)nc2)c2ccc(F)cc12` [11/37]: the EC50 (on full length (FL) LXRα (setting [2]); in test [1] (setting [5])) was < 100 nM in each case.

As to `N#Cc1ccccc1-c1c(-c2cccc(-c3ccc(C(=O)O)cc3Cl)c2)n(S(=O)(=O)c2ccc(C(F)F)cc2)c2cnccc12` [11/49], the EC50 (on full length (FL) LXRα (setting [2]); in test [1] (setting [5])) was < 100 nM in each case.

Take `N#Cc1cccc(C#N)c1-c1c(-c2cccc(-c3ccc(C(=O)O)cc3F)c2)n(S(=O)(=O)c2ccc(C(F)F)cc2)c2ccc(F)cc12` [11/51]: the EC50 (at full length (FL) LXRα (setting [2]); in test [1] (setting [5])) was < 100 nM throughout.

Take `N#Cc1cccc(C#N)c1-c1c(-c2cccc(-c3c(F)cc(C(=O)O)cc3F)c2)n(S(=O)(=O)c2ccc(C(F)F)cc2)c2ccc(F)cc12` [11/53]: the EC50 (on full length (FL) LXRα (setting [2]); in test [1] (setting [5])) was < 100 nM each time.

Regarding `N#Cc1cccc(C#N)c1-c1c(-c2cccc(-c3ccc(C(=O)O)cc3Cl)c2)n(S(=O)(=O)C2CCC(F)(F)CC2)c2ccc(F)cc12` [11/63], the EC50 was < 100 nM on full length (FL) LXRα (setting [2]) and 100 to 1000 nM in test [1] (setting [5]).

Turning to `N#Cc1cccc(C#N)c1-c1c(-c2cccc(-c3cc(F)c(C(=O)O)cc3Cl)c2)n(S(=O)(=O)c2ccc(C(F)F)cc2)c2ccc(F)cc12` [11/65], the EC50 (at full length (FL) LXRα (setting [2]); in test [1] (setting [5])) was < 100 nM throughout.

On to `N#Cc1cccc(C#N)c1-c1c(-c2cccc(-c3ccc(C(=O)NCC(=O)O)cc3Cl)c2)n(S(=O)(=O)c2ccc(C(F)F)cc2)c2ccc(F)cc12` [21/3], for which the EC50 (at full length (FL) LXRα (setting [2]); in test [1] (setting [5])) was < 100 nM throughout.

`Cc1ccc(S(=O)(=O)n2c(-c3cccc(-c4ccc(C(=O)O)cc4)c3)c(-c3ccsc3C#N)c3cc(F)ccc32)cc1C` [23/2]: the values for the EC50 (on full length (FL) LXRα (setting [2]); in test [1] (setting [5])) were < 100 nM and 100 to 1000 nM, respectively.
